# Reference: patent publication US10253002B2, “Compounds and methods of treating infections” (Neoculi Pty Ltd., priority 2013, dated 2019)
# Like-named read-outs stand apart in the source and are kept apart here.
# Columns and labels:
# [1] = system: Staphylococcus pseudintermedius isolates (MSSP and MRSP); test: Disk diffusion and Epsilometer susceptibility testing, Example 6; format: cell-based; details: for MIC: Staphylococcus pseudintermedius
# [2] = system: S. aureus isolates (HA-MRSA, CA-MRSA, methicillin-susceptible staphylococci); test: Kirby-Bauer disc diffusion resistotyping, Example 4; format: cell-based, Staphylococcus aureus; details: for Total isolates resistant (Kirby-Bauer disc diffusion): all isolates (n = 30)
# Method: Antibiotic-susceptibility profiling of the isolate collection was undertaken using Kirby-Bauer disc diffusion, as recommended by the Clinical and Laboratory Standards Institute (CLSI) on Mueller-Hinton agar. Isolates were grown overnight on SBA at 37° C. Colonies were suspended in physiological saline. Turbidity was adjusted to a 0.5 McFarland standard and suspensions were spread over the medium. Antibiotic discs according to Table 9 below were transferred onto the inoculated medium and analysed after 24 h incubation at 37° C.
# [3] = system: S. pneumoniae isolates; test: Disk diffusion susceptibility (CLSI/EUCAST), Example 5; format: cell-based, Streptococcus pneumoniae
# Method: Isolate susceptibility to 12 different antimicrobials (Table 16) was determined by CLSI and European Committee on Antimicrobial Susceptibility Testing (EUCAST) methods. Antimicrobials were selected based upon the CLSI and EUCAST guidelines. Standardised bacterial suspensions were spread onto MHSBA using a sterile cotton swab. Bacterial suspensions from of Streptococcus pneumoniae were standardised to an OD6O0 between 0.08 and 0.1 using a spectrophotometer and then diluted 1:20. Bacterial colonies were taken from an O/N horse blood agar plate. To ensure the purity of the 1:20 bacterial suspension, 50 μL was spread plated onto horse blood agar and incubated O/N at 37° C. with 5% CO2. The CFU was calculated and compared to the initial plate counts. Antibiotic disks (Purchased from Sigma Aldrich) were placed using a disk dispenser (Purchased from Oxoid) according to CLSI standards. MHSBA plates were incubated for 16 h-24 h at 37° C. in 5% CO2. Zones of complete inhibition were measured in triplicate to the nearest millimeter using a ruler on natural light-reflected growth, and the mode was represented as the diameter for each isolate. Pneumococcal isolates were categorised as sensitive, intermediate (I) or resistant (R) by CLSI standards and quality control (QC) ranges (Table 16).
# [4] = Methicillin-susceptible staphylococci (n = 10)
# [5] = mec gene complex A (n = 4), Overall
# [6] = mec gene complex A (n = 4), SCCmec type II
# [7] = mec gene complex A (n = 4), SCCmec type III
# [8] = mec gene complex B (n = 10), Overall
# [9] = mec gene complex B (n = 10), SCCmec type I
# [10] = mec gene complex B (n = 10), SCCmec type IV
# [11] = mec gene complex C2 (n = 4), Overall
# [12] = mec gene complex C2 (n = 4), SCCmec type V
compound,measurement,setting,value
CO[C@@]1(NC(=O)C2SC(=C(C(N)=O)C(=O)O)S2)C(=O)N2C(C(=O)O)=C(CSc3nnnn3C)CS[C@@H]21 (stereo partly shown) [Cefotetan],MRSP isolates susceptible,[1]; 13 MRSP isolates,92%
same,isolates resistant (Kirby-Bauer disc diffusion),[2]; CA-MRSA (n = 10),20.00%
same,isolates resistant (Kirby-Bauer disc diffusion),[2]; HA-MRSA (n = 10),80.00%
same,isolates resistant (Kirby-Bauer disc diffusion),[2]; [4],0.00%
same,"resistant isolates, number (percentage)","[2]; Unclassified (n = 2), Overall",2 (100%)
same,Total isolates resistant (Kirby-Bauer disc diffusion),[2],33.33%
same,"resistant isolates, number (percentage)",[2]; [5],4 (100%)
same,"resistant isolates, number (percentage)",[2]; [6],3 (100%)
same,"resistant isolates, number (percentage)",[2]; [7],1 (100%)
same,"resistant isolates, number (percentage)",[2]; [8],2 (20%)
same,"resistant isolates, number (percentage)",[2]; [9],1 (50%)
same,"resistant isolates, number (percentage)",[2]; [10],1 (12.5%)
same,"resistant isolates, number (percentage)",[2]; [11],2 (50%)
same,"resistant isolates, number (percentage)",[2]; [12],2 (50%)
CO[C@H]1/C=C/O[C@@]2(C)Oc3c(C)c(O)c4c(O)c(c(/C=N/N5CCN(C)CC5)c(O)c4c3C2=O)NC(=O)/C(C)=C\C=C\[C@H](C)[C@H](O)[C@@H](C)[C@@H](O)[C@@H](C)[C@H](OC(C)=O)[C@@H]1C [Rifampicin],isolates resistant (Kirby-Bauer disc diffusion),[2]; CA-MRSA (n = 10),0.00%
same,isolates resistant (Kirby-Bauer disc diffusion),[2]; HA-MRSA (n = 10),10.00%
same,isolates resistant (Kirby-Bauer disc diffusion),[2]; [4],0.00%
same,Total isolates resistant (Kirby-Bauer disc diffusion),[2],3.33%
same,Total isolates resistant (Kirby-Bauer disc diffusion),[2]; listed as rifampicin,3.33%
same,disk diffusion zone diameter,[3]; A66.1,32 mm
same,disk diffusion zone diameter,[3]; D39,28 mm
same,disk diffusion zone diameter,[3]; EF3030,32 mm
same,disk diffusion zone diameter,[3]; L82016,26 mm
same,disk diffusion zone diameter,[3]; P9,27 mm
same,disk diffusion zone diameter,[3]; P21,32 mm
same,disk diffusion zone diameter,[3]; TIGR4,30 mm
same,disk diffusion zone diameter,[3]; WCH16,30 mm
same,disk diffusion zone diameter,[3]; WCH43,27 mm
same,disk diffusion zone diameter,[3]; WCH46,29 mm
same,disk diffusion zone diameter,[3]; WCH57,38 mm
same,disk diffusion zone diameter,[3]; WCH77,33 mm
same,disk diffusion zone diameter,[3]; WCH86,31 mm
same,disk diffusion zone diameter,[3]; WCH89,32 mm
same,disk diffusion zone diameter,[3]; WCH92,22 mm
same,disk diffusion zone diameter,[3]; WCH137,30 mm
same,disk diffusion zone diameter,[3]; WCH158,34 mm
same,disk diffusion zone diameter,[3]; WCH184,32 mm
same,disk diffusion zone diameter,[3]; WCH211,32 mm
same,disk diffusion zone diameter,[3]; WU2,31 mm
Cc1onc(-c2ccccc2)c1C(=O)N[C@@H]1C(=O)N2[C@@H]1SC(C)(C)[C@@H]2C(=O)O [Oxacillin],"disc diffusion zone, all MRSP isolates resistant",[1]; 13 MRSP isolates,≤ 17 mm
same,MIC,"[1]; 13 MRSP isolates, read-out: E-test MIC, all MRSP isolates resistant",≥ 0.5 µg/mL
same,MIC,"[1]; isolate S1P1, read-out: Etest MIC",> 256 µg/mL
same,MIC,"[1]; isolate S2P2, read-out: Etest MIC",> 256 µg/mL
same,MIC,"[1]; isolate S3P3, read-out: Etest MIC",> 256 µg/mL
same,MIC,"[1]; isolate S4P4, read-out: Etest MIC",2 µg/mL
same,MIC,"[1]; isolate S5P5, read-out: Etest MIC",4 µg/mL
same,MIC,"[1]; isolate S6P6, read-out: Etest MIC",> 256 µg/mL
same,MIC,"[1]; isolate S7P7, read-out: Etest MIC",> 256 µg/mL
same,MIC,"[1]; isolate S8P8, read-out: Etest MIC",> 256 µg/mL
same,MIC,"[1]; isolate S9P9, read-out: Etest MIC",4 µg/mL
same,MIC,"[1]; isolate S10P10, read-out: Etest MIC",> 256 µg/mL
same,MIC,"[1]; isolate S11P11, read-out: Etest MIC",> 256 µg/mL
same,MIC,"[1]; isolate S12P12, read-out: Etest MIC",1.5 µg/mL
same,MIC,"[1]; isolate S13P13, read-out: Etest MIC",0.125 µg/mL
same,MIC,"[1]; isolate S14P14, read-out: Etest MIC",0.25 µg/mL
same,MIC,"[1]; isolate S15P15, read-out: Etest MIC",0.25 µg/mL
same,MIC,"[1]; isolate S16P16, read-out: Etest MIC",0.19 µg/mL
same,MIC,"[1]; isolate S17P17, read-out: Etest MIC",0.25 µg/mL
same,MIC,"[1]; isolate S18P18, read-out: Etest MIC",0.25 µg/mL
same,MIC,"[1]; isolate S19P19, read-out: Etest MIC",0.25 µg/mL
same,MIC,"[1]; isolate S20P20, read-out: Etest MIC",0.25 µg/mL
same,MIC,"[1]; isolate S21P21, read-out: Etest MIC",0.125 µg/mL
same,MIC,"[1]; isolate S22P22, read-out: Etest MIC",0.25 µg/mL
same,MIC,"[1]; isolate S23P23, read-out: Etest MIC",1.5 µg/mL
same,ZD,[1]; isolate S1P1,0 mm
same,"ZD, Adl",[1]; isolate S1P1,0 mm
same,ZD,[1]; isolate S2P2,0 mm
same,"ZD, Adl",[1]; isolate S2P2,0 mm
same,ZD,[1]; isolate S3P3,0 mm
same,"ZD, Adl",[1]; isolate S3P3,0 mm
same,ZD,[1]; isolate S4P4,0 mm
same,"ZD, Adl",[1]; isolate S4P4,0 mm
same,ZD,[1]; isolate S5P5,0 mm
same,"ZD, Adl",[1]; isolate S5P5,0 mm
same,ZD,[1]; isolate S6P6,0 mm
same,"ZD, Adl",[1]; isolate S6P6,0 mm
same,ZD,[1]; isolate S7P7,0 mm
same,"ZD, Adl",[1]; isolate S7P7,0 mm
same,ZD,[1]; isolate S8P8,0 mm
same,"ZD, Adl",[1]; isolate S8P8,0 mm
same,ZD,[1]; isolate S9P9,0 mm
same,"ZD, Adl",[1]; isolate S9P9,0 mm
same,ZD,[1]; isolate S10P10,0 mm
same,"ZD, Adl",[1]; isolate S10P10,0 mm
same,ZD,[1]; isolate S11P11,0 mm
same,"ZD, Adl",[1]; isolate S11P11,0 mm
same,ZD,[1]; isolate S12P12,13 mm
same,"ZD, Adl",[1]; isolate S12P12,16 mm
same,ZD,[1]; isolate S13P13,26 mm
same,"ZD, Adl",[1]; isolate S13P13,36 mm
same,ZD,[1]; isolate S14P14,22 mm
same,"ZD, Adl",[1]; isolate S14P14,29 mm
same,ZD,[1]; isolate S15P15,22 mm
same,"ZD, Adl",[1]; isolate S15P15,25 mm
same,ZD,[1]; isolate S16P16,26 mm
same,"ZD, Adl",[1]; isolate S16P16,34 mm
same,ZD,[1]; isolate S17P17,22 mm
same,"ZD, Adl",[1]; isolate S17P17,26 mm
same,ZD,[1]; isolate S18P18,22 mm
same,"ZD, Adl",[1]; isolate S18P18,30 mm
same,ZD,[1]; isolate S19P19,25 mm
same,"ZD, Adl",[1]; isolate S19P19,32 mm
same,ZD,[1]; isolate S20P20,23 mm
same,"ZD, Adl",[1]; isolate S20P20,30 mm
same,ZD,[1]; isolate S21P21,27 mm
same,"ZD, Adl",[1]; isolate S21P21,37 mm
same,ZD,[1]; isolate S22P22,21 mm
same,"ZD, Adl",[1]; isolate S22P22,26 mm
same,ZD,[1]; isolate S23P23,13 mm
same,"ZD, Adl",[1]; isolate S23P23,14 mm
same,isolates resistant (Kirby-Bauer disc diffusion),[2]; CA-MRSA (n = 10),10.00%
same,isolates resistant (Kirby-Bauer disc diffusion),[2]; HA-MRSA (n = 10),80.00%
same,isolates resistant (Kirby-Bauer disc diffusion),[2]; [4],0.00%
same,"resistant isolates, number (percentage)","[2]; Unclassified (n = 2), Overall",2 (100%)
same,Total isolates resistant (Kirby-Bauer disc diffusion),[2],30.00%
same,"resistant isolates, number (percentage)",[2]; [5],4 (100%)
same,"resistant isolates, number (percentage)",[2]; [6],3 (100%)
same,"resistant isolates, number (percentage)",[2]; [7],1 (100%)
same,"resistant isolates, number (percentage)",[2]; [8],2 (20%)
same,"resistant isolates, number (percentage)",[2]; [9],1 (50%)
same,"resistant isolates, number (percentage)",[2]; [10],1 (12.5%)
same,"resistant isolates, number (percentage)",[2]; [11],1 (25%)
same,"resistant isolates, number (percentage)",[2]; [12],1 (25%)
same,disk diffusion zone diameter,[3]; A66.1,28 mm
same,disk diffusion zone diameter,[3]; D39,26 mm
same,disk diffusion zone diameter,[3]; EF3030,18 mm
same,disk diffusion zone diameter,[3]; L82016,29 mm
same,disk diffusion zone diameter,[3]; P9,26 mm
same,disk diffusion zone diameter,[3]; P21,28 mm
same,disk diffusion zone diameter,[3]; TIGR4,26 mm
same,disk diffusion zone diameter,[3]; WCH16,30 mm
same,disk diffusion zone diameter,[3]; WCH43,26 mm
same,disk diffusion zone diameter,[3]; WCH46,27 mm
same,disk diffusion zone diameter,[3]; WCH57,32 mm
same,disk diffusion zone diameter,[3]; WCH77,28 mm
same,disk diffusion zone diameter,[3]; WCH86,34 mm
same,disk diffusion zone diameter,[3]; WCH89,29 mm
same,disk diffusion zone diameter,[3]; WCH92,25 mm
same,disk diffusion zone diameter,[3]; WCH137,29 mm
same,disk diffusion zone diameter,[3]; WCH158,28 mm
same,disk diffusion zone diameter,[3]; WCH184,11 mm
same,disk diffusion zone diameter,[3]; WCH211,25 mm
same,disk diffusion zone diameter,[3]; WU2,28 mm
CCC[C@@H]1C[C@@H](C(=O)N[C@@H]([C@H]2O[C@H](SC)[C@H](O)[C@@H](O)[C@H]2O)[C@H](C)Cl)N(C)C1 [Clindamycin],isolates resistant (Kirby-Bauer disc diffusion),[2]; CA-MRSA (n = 10),50.00%
same,isolates resistant (Kirby-Bauer disc diffusion),[2]; HA-MRSA (n = 10),50.00%
same,isolates resistant (Kirby-Bauer disc diffusion),[2]; [4],30.00%
same,Total isolates resistant (Kirby-Bauer disc diffusion),[2],43.33%
same,Total isolates resistant (Kirby-Bauer disc diffusion),[2]; listed as clindamycin,43.33%
same,disk diffusion zone diameter,[3]; A66.1,34 mm
same,disk diffusion zone diameter,[3]; D39,27 mm
same,disk diffusion zone diameter,[3]; EF3030,26 mm
same,disk diffusion zone diameter,[3]; L82016,32 mm
same,disk diffusion zone diameter,[3]; P9,31 mm
same,disk diffusion zone diameter,[3]; P21,25 mm
same,disk diffusion zone diameter,[3]; TIGR4,28 mm
same,disk diffusion zone diameter,[3]; WCH16,28 mm
same,disk diffusion zone diameter,[3]; WCH43,22 mm
same,disk diffusion zone diameter,[3]; WCH46,30 mm
same,disk diffusion zone diameter,[3]; WCH57,34 mm
same,disk diffusion zone diameter,[3]; WCH77,28 mm
same,disk diffusion zone diameter,[3]; WCH86,30 mm
same,disk diffusion zone diameter,[3]; WCH89,27 mm
same,disk diffusion zone diameter,[3]; WCH92,24 mm
same,disk diffusion zone diameter,[3]; WCH137,26 mm
same,disk diffusion zone diameter,[3]; WCH158,32 mm
same,disk diffusion zone diameter,[3]; WCH184,10 mm
same,disk diffusion susceptibility category,[3]; WCH184 (Table 18),R
same,disk diffusion zone diameter,[3]; WCH211,27 mm
same,disk diffusion zone diameter,[3]; WU2,27 mm
